According to ChEMBL document CHEMBL2074066, “Fluorescent substrates of sister-P-glycoprotein (BSEP) evaluated as markers of active transport and inhibition: evidence for contingent unequal binding sites” (Pharm Res, 2003):
pIC50: −log10 of the molar value.

Assays:
Type in all cases: functional, cell-based
Bile salt export pump [1] = target: T1, Bile salt export pump (Homo sapiens, UniProt O95342); experiment: TP_TRANSPORTER: inhibitory effect of typical BSEP inhibitors (Verapamil & Cyclosporin A) in SK-E2 cells (expressing BSEP)
Bile salt export pump [2] = target: T1, Bile salt export pump; experiment: TP_TRANSPORTER: increase in dihydrofluorescein intracellular accumulation (dihydrofluorescein: 1 uM) in SK-E2 cells (expressing BSEP); conditions: for Activity: sk-e2
Bile salt export pump [3] = target: T1, Bile salt export pump; experiment: TP_TRANSPORTER: increase in bodipy intracellular accumulation (Bodipy: 0.2 uM) in SK-E2 cells (expressing BSEP); conditions: for Activity: human, sk-e2

T1 sequence (O95342 whole entry): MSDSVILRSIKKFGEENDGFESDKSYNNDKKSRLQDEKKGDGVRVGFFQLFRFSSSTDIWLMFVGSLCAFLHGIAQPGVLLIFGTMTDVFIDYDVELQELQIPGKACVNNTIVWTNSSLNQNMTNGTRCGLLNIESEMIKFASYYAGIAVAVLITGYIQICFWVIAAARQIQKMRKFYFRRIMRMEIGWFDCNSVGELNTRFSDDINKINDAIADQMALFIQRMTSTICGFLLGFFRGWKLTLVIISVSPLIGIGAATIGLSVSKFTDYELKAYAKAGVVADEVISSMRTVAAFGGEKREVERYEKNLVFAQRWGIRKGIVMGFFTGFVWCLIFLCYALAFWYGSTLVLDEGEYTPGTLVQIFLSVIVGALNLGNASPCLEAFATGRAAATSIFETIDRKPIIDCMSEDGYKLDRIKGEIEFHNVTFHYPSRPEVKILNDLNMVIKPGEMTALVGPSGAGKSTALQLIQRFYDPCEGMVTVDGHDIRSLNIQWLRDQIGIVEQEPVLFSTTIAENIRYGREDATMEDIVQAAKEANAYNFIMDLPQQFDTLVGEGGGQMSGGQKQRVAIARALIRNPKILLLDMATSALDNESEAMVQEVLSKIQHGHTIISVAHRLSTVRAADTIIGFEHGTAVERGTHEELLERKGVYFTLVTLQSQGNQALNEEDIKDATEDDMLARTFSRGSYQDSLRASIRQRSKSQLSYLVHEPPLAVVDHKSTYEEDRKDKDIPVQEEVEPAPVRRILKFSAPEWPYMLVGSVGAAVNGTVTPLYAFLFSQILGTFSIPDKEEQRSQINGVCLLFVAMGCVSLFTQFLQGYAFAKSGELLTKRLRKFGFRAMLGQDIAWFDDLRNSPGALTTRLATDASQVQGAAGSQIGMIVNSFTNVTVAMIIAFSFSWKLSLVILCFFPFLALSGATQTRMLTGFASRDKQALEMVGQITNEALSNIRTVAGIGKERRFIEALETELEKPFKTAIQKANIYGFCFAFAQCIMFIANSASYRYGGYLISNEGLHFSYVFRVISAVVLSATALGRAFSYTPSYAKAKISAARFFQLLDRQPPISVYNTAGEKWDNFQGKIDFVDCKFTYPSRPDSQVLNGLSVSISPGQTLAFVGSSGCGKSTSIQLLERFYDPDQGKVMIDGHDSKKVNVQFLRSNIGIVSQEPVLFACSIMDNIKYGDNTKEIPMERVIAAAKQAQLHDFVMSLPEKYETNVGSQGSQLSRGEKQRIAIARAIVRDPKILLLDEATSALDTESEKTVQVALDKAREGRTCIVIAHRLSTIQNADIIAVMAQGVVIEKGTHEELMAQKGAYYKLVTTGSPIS

Q: Which Activity (Bile salt export pump [1]) does the source give for `CC(=O)OCOC(=O)CN(CC(=O)OCOC(C)=O)Cc1c(OC(C)=O)ccc2c1Oc1c(ccc(OC(C)=O)c1CN(CC(=O)OCOC(C)=O)CC(=O)OCOC(C)=O)C21OC(=O)c2ccccc21` here?
A: is not a substrate [-]

Q: How did the Activity (Bile salt export pump [2]) turn out when `CN/C(=N/CCSCc1nc[nH]c1C)NC#N` [CIMETIDINE] was run?
A: is not an inhibitor [-]

Q: What about the Activity (Bile salt export pump [3]) of the same compound?
A: is not an inhibitor [-]

Q: With `Cc1c(C)c2c(c(C)c1O)CCC(C)(COc1ccc(CC3SC(=O)NC3=O)cc1)O2` (centres undefined) [TROGLITAZONE] as the compound, how does the pIC50 (Bile salt export pump [2]) read?
A: 4.18

Q: With `CN(C)c1ccc2c(-c3ccc(CCl)cc3)c3ccc(=[N+](C)C)cc-3oc2c1.[Br-]` [TETRAMETHYLROSAMINE] as the compound, how does the Activity (Bile salt export pump [1]) read?
A: is not a substrate [-]

Q: For `CCOc1ccc(-c2nc3cc(-c4nc5cc(N6CCN(C)CC6)ccc5[nH]4)ccc3[nH]2)cc1`, which Activity (Bile salt export pump [1]) is on record?
A: is not a substrate [-]

Q: With `O=C(O)c1ccccc1C1c2ccc(O)cc2Oc2cc(O)ccc21` [FLUORESCIN] as the compound, how does the Activity (Bile salt export pump [1]) read?
A: substrate [+]

Q: Which results are given for `C[C@H](CCC(=O)NCCS(=O)(=O)O)[C@H]1CC[C@H]2[C@@H]3CC[C@@H]4C[C@H](O)CC[C@]4(C)[C@H]3CC[C@]12C` [TAUROLITHOCHOLIC ACID]?
A: pIC50 (Bile salt export pump [2]): 3.72; Activity (Bile salt export pump [3]): is not an inhibitor [-]

Q: With `CC[n+]1cc(N(C)C)cc2ccc(/C=C/C=C/c3ccc(N(C)C)cc3)cc21` as the compound, how does the Activity (Bile salt export pump [1]) read?
A: is not a substrate [-]

Q: For `COc1cccc2c1C(=O)c1c(O)c3c(c(O)c1C2=O)C[C@@](O)(C(C)=O)C[C@@H]3O[C@H]1C[C@H](N)[C@H](O)[C@H](C)O1` [DAUNORUBICIN], which Activity (Bile salt export pump [1]) is on record?
A: is not a substrate [-]

Q: For `COc1cccc2c1C(=O)c1c(O)c3c(c(O)c1C2=O)C[C@@](O)(C(=O)CO)C[C@@H]3O[C@H]1C[C@H](N)[C@H](O)[C@H](C)O1` [DOXORUBICIN], which Activity (Bile salt export pump [1]) is on record?
A: is not a substrate [-]

Q: How did the pIC50 (Bile salt export pump [2]) turn out when `CC(C)[C@@H]1NC(=O)[C@H](C)OC(=O)[C@@H](C(C)C)NC(=O)[C@@H](C(C)C)OC(=O)[C@H](C(C)C)NC(=O)[C@H](C)OC(=O)[C@@H](C(C)C)NC(=O)[C@@H](C(C)C)OC(=O)[C@H](C(C)C)NC(=O)[C@H](C)OC(=O)[C@@H](C(C)C)NC(=O)[C@@H](C(C)C)OC1=O` [VALINOMYCIN] was run?
A: 5.14

Q: And the Activity (Bile salt export pump [3])?
A: is not an inhibitor [-]

Q: How did the Activity (Bile salt export pump [1]) turn out when `COC(=O)c1ccccc1-c1c2ccc(=N)cc-2oc2cc(N)ccc12.Cl` [RHODAMINE123] was run?
A: is not a substrate [-]

Q: With `CO[C@H]1/C=C/O[C@@]2(C)Oc3c(C)c(O)c4c(O)c(cc(O)c4c3C2=O)NC(=O)/C(C)=C\C=C\[C@H](C)[C@H](O)[C@@H](C)[C@@H](O)[C@@H](C)[C@H](OC(C)=O)[C@@H]1C` [RIFAMYCIN] as the compound, how does the pIC50 (Bile salt export pump [2]) read?
A: 4.91

Q: And the pIC50 (Bile salt export pump [3])?
A: 3.69

Q: For `CN(CCOC(=O)CI)c1ccc([N+](=O)[O-])c2nonc12`, which Activity (Bile salt export pump [1]) is on record?
A: is not a substrate [-]

Q: `O=C(O[C@@H]1Cc2c(O)cc(O)cc2O[C@@H]1c1cc(O)c(O)c(O)c1)c1cc(O)c(O)c(O)c1` [EPIGALOCATECHIN GALLATE] was tested. Which Activity (Bile salt export pump [2]) did it give?
A: is not an inhibitor [-]

Q: And the pIC50 (Bile salt export pump [3])?
A: 3.67

Q: With `CC(C)/N=c1\cc2n(-c3ccc(Cl)cc3)c3ccccc3nc-2cc1Nc1ccc(Cl)cc1` [CLOFAZIMINE] as the compound, how does the pIC50 (Bile salt export pump [2]) read?
A: 4.54

Q: What does the source list for `CC[C@]1(O)C[C@@H]2CN(CCc3c([nH]c4ccccc34)[C@@](C(=O)OC)(c3cc4c(cc3OC)N(C)[C@H]3[C@@](O)(C(=O)OC)[C@H](OC(C)=O)[C@]5(CC)C=CCN6CC[C@]43[C@@H]65)C2)C1` [VINBLASTINE]?
A: pIC50 (Bile salt export pump [2]): 4.21; pIC50 (Bile salt export pump [3]): 3.94

Q: Which results are given for `CN(C)CCCN1c2ccccc2Sc2ccc(Cl)cc21` [CHLORPROMAZINE]?
A: pIC50 (Bile salt export pump [2]): 4.47; pIC50 (Bile salt export pump [3]): 4.51

Q: With `COC(=O)[C@H]1[C@H]2C[C@@H]3c4[nH]c5cc(OC)ccc5c4CCN3C[C@H]2C[C@@H](OC(=O)c2cc(OC)c(OC)c(OC)c2)[C@@H]1OC` [RESERPINE] as the compound, how does the pIC50 (Bile salt export pump [2]) read?
A: 4.99

Q: What about the Activity (Bile salt export pump [3]) of the same compound?
A: is not an inhibitor [-]

Q: How did the Activity (Bile salt export pump [2]) turn out when `C=C[C@H]1C[N@@]2CC[C@H]1C[C@@H]2[C@@H](O)c1ccnc2ccc(OC)cc12` [QUINIDINE] was run?
A: is not an inhibitor [-]

Q: `O=C1OC2(c3ccc(O)cc3Oc3cc(O)ccc32)c2ccccc21` [FLUORESCEIN] was tested. Which Activity (Bile salt export pump [1]) did it give?
A: substrate [+]

Q: Which Activity (Bile salt export pump [1]) does the source give for `CC(=O)Oc1cc2c(cc1Cl)C(c1c(C(=O)O)cccc1C(=O)O)c1cc(Cl)c(OC(C)=O)cc1O2.CC(=O)Oc1cc2c(cc1Cl)C(c1cc(C(=O)O)ccc1C(=O)O)c1cc(Cl)c(OC(C)=O)cc1O2` here?
A: is not a substrate [-]

Q: How did the Activity (Bile salt export pump [1]) turn out when `CC(=O)OCOC(=O)CN(CC(=O)OCOC(C)=O)c1ccc(C)cc1OCCOc1cc(-c2c3cc(Cl)c(=O)cc-3oc3cc(OCOC(C)=O)c(Cl)cc23)ccc1N(CC(=O)OCOC(C)=O)CC(=O)OCOC(C)=O` was run?
A: is not a substrate [-]

Q: Which Activity (Bile salt export pump [1]) does the source give for `O=C(CI)Nc1ccc(-c2c3ccc(=O)cc-3oc3cc(O)ccc23)c(C(=O)O)c1` [5-Iodoacetamidofluorescein] here?
A: is not a substrate [-]

Q: With `Cc1cc(C)n2c1C=C1C=CC(CCCCCCCCCCCC(=O)OC3CC[C@@]4(C)C(=CC[C@@H]5[C@@H]4CC[C@]4(C)C(C(C)CCCC(C)C)CC[C@@H]54)C3)=[N+]1[B-]2(F)F` (some centres undefined) [CHOLESTERYL BODIPY FL C12] as the compound, how does the Activity (Bile salt export pump [1]) read?
A: is not a substrate [-]

Q: `CCN1C(=C/C=C/c2n(CC)c3cc(Cl)c(Cl)cc3[n+]2CC)N(CC)c2cc(Cl)c(Cl)cc21.[I-]` was tested. Which Activity (Bile salt export pump [1]) did it give?
A: is not a substrate [-]
